Experimental data taken from US6355799B1, “Substituted benzene compounds, process for their preparation, and herbicidal and defoliant compositions containing them” (ISK Americas Incorporated, priority 1997, dated 2002).

Legend:
Type in all cases: in vivo
[1] = test system: barnyardgrass (Echinochloa crus-galli, ECHCG); experiment: Post-emerge test, greenhouse herbicide activity screening; conditions: Echinochloa crus-galli, post-emergence, 336 h, phytotoxicity rating 0-100 (0 no damage, 100 complete death), 14 days after application, read-out: Post-emerge Herbicidal Activity ECHCG
How it was run: (§1)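 Compounds in acetone were track-sprayed at 187 l/ha, 15–1000 g ai/ha, onto sandy loam pots. Pre-emerge seeds were sown one day before spraying, with surface watering afterwards. Post-emerge plants were at the 2–3 leaf stage and sprayed with 0.25% v/v non-ionic surfactant. Injury was rated 0–100 at 14 days.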

[2] = test system: velvetleaf (Abutilon theophrasti, ABUTH); experiment: as above; conditions: Abutilon theophrasti, post-emergence, 336 h, phytotoxicity rating 0-100 (0 no damage, 100 complete death), 14 days after application, read-out: Post-emerge Herbicidal Activity ABUTH
How it was run: as §1

[3] = test system: redroot pigweed (Amaranthus retroflexus, AMARE); experiment: as above; conditions: Amaranthus retroflexus, post-emergence, 336 h, phytotoxicity rating 0-100 (0 no damage, 100 complete death), 14 days after application, read-out: Post-emerge Herbicidal Activity AMARE
How it was run: as §1

[4] = test system: ivyleaf morningglory (Ipomoea hederacea, IPOHE); experiment: as above; conditions: Ipomoea, post-emergence, 336 h, phytotoxicity rating 0-100 (0 no damage, 100 complete death), 14 days after application, read-out: Post-emerge Herbicidal Activity IPOHE
How it was run: as §1

[5] = test system: common ragweed (Ambrosia artemisizfolia L., AMBEL); experiment: as above; conditions: phytotoxicity rating 0-100 (0 no damage, 100 complete death), 14 days after application
How it was run: as §1

weed species = experiment: Standard greenhouse herbicide activity screening, overall statements on weeds; conditions: comparison with compound 2 of Japanese Pat. No. Toku Kai Hei 5-25144 (Table XIX)
Description: A standard greenhouse herbicide activity screening system was used to evaluate the herbicidal efficacy and crop safety of these test compounds. Seven broadleaf weed species including redroot pigweed (Amaranthus retroflexus, AMARE, velvetleaf (Abutilon theophrasti, ABUTH), sicklepod (Cassia obtusifolia, CASOB), ivyleaf morningglory (Ipomoea hederacea, IPOHE), lambsquarters (Chenopodium album, CHEAL), common ragweed (Ambrosia artemisizfolia L., AMBEL), and cocklebur (Xanthium strumarium, XANST) were used as test species. Four grass weed species including green foxtail (Setaria viridis, SETVI), barnyardgrass (Echinochloa crus-galli, ECHCG), johnsongrass (Sorghum halepense, SORHA), and large crabgrass (Digitaria sanguinalis, DIGSA) were also used. In addition, three crop species, field corn (Zea mays L., var. Dekalb 535, CORN), soybean (Glycine max L., var. Pella 86, SOY), and is upland rice (Oryza sp., var. Tebonnet, RICE) were included.
All plants were grown in 10 cm square plastic pots which were filled with a sandy loam soil mix. For pre-emerge tests, seeds were planted one day prior to application of the test compounds. For post-emerge tests, seeds were planted 8-21 days prior to the test to allow emergence and good foliage development prior to application of the test substances. […]
At 14 days after application of the test materials, phytotoxicity ratings were recorded. […]

[6] = test system: cocklebur (Xanthium strumarium, XANST); experiment: Pre-emerge test, greenhouse herbicide activity screening; conditions: 14 days after application, rating scale 0-100
[7] = test system: common ragweed (Ambrosia artemisizfolia L., AMBEL); experiment: as above; conditions: pre-emerge, rated 14 days after application, 0 = no damage, 100 = complete death
How it was run: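 Applied at 15–1000 g ai/ha from acetone in 187 l/ha spray volume. Post-emergence applications included 0.25% v/v non-ionic surfactant and reached plants sown 8–21 days before. Pre-emergence applications were incorporated by surface watering. Efficacy or crop damage was rated on a 0–100 scale after 14 days.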

## COc1c(Cl)cc(F)c(-n2c(=O)cc(C(F)(F)F)n(C)c2=O)c1N [Compound 1-4, 3-(2-amino-4-chloro-6-fluoro-3-methoxyphenyl)-1-methyl-6-trifluoromethyl-2,4(1H, 3H)-pyrimidinedione]
[1]; 63 g ai/ha
  pest or weed control at 63 g/ha: 0%
[1]; 250 g ai/ha
  pest or weed control at 250 g/ha: 40%
[2]; 63 g ai/ha
  pest or weed control at 63 g/ha: 100%
[2]; 250 g ai/ha
  pest or weed control at 250 g/ha: 100%
[3]; 63 g ai/ha
  pest or weed control at 63 g/ha: 30%
[3]; 250 g ai/ha
  pest or weed control at 250 g/ha: 95%
[4]; 63 g ai/ha
  pest or weed control at 63 g/ha: 100%
[4]; 250 g ai/ha
  pest or weed control at 250 g/ha: 100%
[5]; 63 g ai/ha
  Post-emerge Herbicidal Activity AMBEL: 50
[5]; 250 g ai/ha
  Post-emerge Herbicidal Activity AMBEL: 90
Weed species
  pre-emerge herbicidal activity: high level of activity
[6]; 3.9 g ai/ha
  phytotoxicity rating XANST: 0
[6]; 7.8 g ai/ha
  phytotoxicity rating XANST: 0
[6]; 15.6 g ai/ha
  phytotoxicity rating XANST: 20
[6]; 31.3 g ai/ha
  phytotoxicity rating XANST: 10
[6]; 62.5 g ai/ha
  phytotoxicity rating XANST: 50
[6]; 125 g ai/ha
  phytotoxicity rating XANST: 50
[6]; 250 g ai/ha
  phytotoxicity rating XANST: 90
[7]; 63 g ai/ha
  Pre-emerge Herbicidal Activity AMBEL (phytotoxicity rating, scale 0-100): 100
[7]; 250 g ai/ha
  Pre-emerge Herbicidal Activity AMBEL (phytotoxicity rating, scale 0-100): 100
